Reference: BindingDB's records for doi:10.1021/jm020495y (F. Hoffmann-La Roche, 2003)

Experiments:
[1] = Inhibitory activity of TMP-susceptible Dihydrofolate reductase against […] ATCC 49619
[2] = Antibacterial activity of TMP-susceptible Dihydrofolate reductase against […] ATCC 49619

| SMILES | IC50 [1] | IC50 [2] |
| --- | --- | --- |
| CC1c2ccc3c4ccccc4n(C)c3c2CCN1Cc1cnc(N)nc1N (stereo unspecified) [5-(4,11-Dimethyl-1,2,4,11-tetrahydro-pyrido[4,3-a]carbazol-3-ylmethyl)-pyrimidine-2,4-diamine] | 10 nM | 4 nM |
| CC1c2cc(Cc3ccccc3)c(-c3ccccc3)n2CCN1Cc1cnc(N)nc1N (stereo unspecified) [5-(7-Benzyl-1-methyl-6-phenyl-3,4-dihydro-1H-pyrrolo[1,2-a]pyrazin-2-ylmethyl)-pyrimidine-2,4-diamine] | – | 450 nM |
| Nc1ncc(CN2CCc3c([nH]c4ccccc34)C2)c(N)n1 [5-(1,3,4,9-Tetrahydro-beta-carbolin-2-ylmethyl)-pyrimidine-2,4-diamine] | – | 4 nM |
| CSc1c2n(c3cc(Cl)ccc13)CCN(Cc1cnc(N)nc1N)C2 [5-(7-Chloro-10-methylsulfanyl-3,4-dihydro-1H-pyrazino[1,2-a]indol-2-ylmethyl)-pyrimidine-2,4-diamine] | – | 2 nM |
| COc1ccc2c(c1)CN(Cc1cnc(N)nc1N)CC2c1cccc([N+](=O)[O-])c1 (stereo unspecified) [5-[7-Methoxy-4-(3-nitro-phenyl)-3,4-dihydro-1H-isoquinolin-2-ylmethyl]-pyrimidine-2,4-diamine] | – | 6 nM |
